# Laboratory results published in article PMC11253855, “Phosphonodiamidate prodrugs of phosphoantigens (ProPAgens) exhibit potent Vγ9/Vδ2 T cell activation and eradication of cancer cells” (RSC Medicinal Chemistry, 2024).
# Read-outs that look alike come from different tables or passages of the source.
# Legend:
# Vγ9/Vδ2 T cells [1] = experiment: In vitro Vγ9/Vδ2 T cell activation assay (PBMCs, CD69+ CD25+ by flow cytometry); format: cell-based, human; conditions: for EC50: Homo sapiens, T-cell, read-out: EC50 (activation of Vγ9/Vδ2 T cells); for Activation of Vγ9/Vδ2 T cells at the highest concentration studied: 100 μM compared with 10 μM
# Method: Subsequently, we studied the ability of these HMBP phosphonodiamidate ProPAgens to activate Vγ9/Vδ2 T cells and elicit their lysis of cancer cells in vitro. For this, peripheral blood mononuclear cells (PBMCs) derived from healthy donors and containing Vγ9/Vδ2 T cells were incubated with increasing concentrations of zoledronate or phosphonodiamidate HMBP ProPAgens 9a–d and 14a–d (up to 100 μM) (Fig. 4). Peripheral blood γδ T cells lack appreciable levels of surface CD69 or CD25 under steady-state conditions, but TCR stimulation upregulates both T cell activation markers.[6] Thus, PAg-responsive Vγ9/Vδ2 T cells were then assessed for the upregulation of CD69 and CD25.
# Fig. 4 In vitro phosphonodiamidate ProPAgen-mediated activation of Vγ9/Vδ2 T cells, following overnight incubation with zoledronate, and HMBP ProPAgens 9a–d and 14a–d. Levels of activation are represented as % of Vγ9/Vδ2 T cells that are CD69+ CD25+. Data is shown as mean ± SE (n = 4). (A) Activation of Vγ9/Vδ2 stimulated by phosphonodiamidate ProPAgens 9a–d. (B) Activation of Vγ9/Vδ2 stimulated by ProPAgens 14a–d. (C) Activation of Vγ9Vδ2 stimulated by zoledronate (Zol). (D) EC50 values were calculated using GraphPad Prism v9 based on the results of the activation assay.
# As for the activation of Vγ9/Vδ2 T cells by the phosphonodiamidate ProPAgens (9a–d and 14a–d), these were initially tested using a concentration range from […] to 100 μM (Fig. 4A and B).
# Healthy donor peripheral blood mononuclear cells (PBMCs) were harvested as previously described.[20] To assess the activation of Vγ9/Vδ2 T cells, PBMCs were seeded into U-bottom tissue culture-treated 96-well plates at a cell density of 500 000 cells per well. The cells were incubated with medium-only (control), in the presence of zoledronate at 10 pM to 100 μM, and with HMBP ProPAgens initially at 10 pM to 100 μM, and then at 1 aM to 100 μM for compounds 9d and 14d in a separate experiment. The cells were incubated at 37 °C/5% CO2 overnight, and stained by flow cytometry for the following markers: viability (Zombie Aqua 1 : 400), CD3 (BV421 1 : 100), CD8 (BV650 1 : 200), Vγ9 (PEcy5 1 : 400), Vδ2 (APC 1 : 200), CD69 (PE 1 : 25), CD25 (FITC 1 : 100). The samples were acquired via LSRFortessa X20 (BD Biosciences), and the data obtained were analyzed using FlowJo v10 and GraphPad Prism v9 software.
# T24 cells = experiment: Europium-based (DELFIA) cytotoxicity assay: Vγ9/Vδ2 T cell killing of drug-treated T24 cells; parameters: species or system human; conditions: 10 nM ProPAgen for 2 h versus 10 μM zoledronate; effector : target 80 : 1, 1 h
# Method: Encouraged by the potency and specificity of our HMBP phosphonodiamidate ProPAgens, especially 9d and 14d, we subsequently studied their ability to sensitize the urinary bladder carcinoma cell line T24 for targeted killing by in vitro expanded Vγ9/Vδ2 T cells (Fig. 5). In brief, T24 cells were incubated in PBS containing 10 μM zoledronate or the indicated HMBP phosphonodiamidate ProPAgens for a period of 2 h. A positive control for cell death (target cells incubated with 10% v/v DELFIA lysis buffer) and media-only treated control (no drug) was also included. The cells were then washed and cocultured with ex vivo expanded Vγ9/Vδ2 T cells for 1 h at 80 : 1 effector : target ratio, and the level of killing of T24 cells was then measured via time-resolved fluorescence.
# Fig. 5 Cytotoxicity of Vγ9/Vδ2 T cells toward the phosphonodiamidate ProPAgen-treated T24 cells. % killing of T24 cells was calculated with this formula: [(experimental release − spontaneous release)/(maximal release − spontaneous release)] × 100. […]
# To assess the level of killing of drug-treated and untreated tumour cells, a Europium-based cytotoxicity assay was performed (DELFIA, Perkin Elmer) as described elsewhere.[47] […] Time-resolved fluorescence was then measured using a PHERAstar microplate reader (BMG Labtech). […] The data were processed and analysed using Microsoft Excel and GraphPad Prism v9 software.
# Vγ9/Vδ2 T cells [2] = conditions: read-out: EC50 (activator of Vγ9/Vδ2 T cells), cited from earlier work
# [3] = Fig. 1A legend, no reference given
Structure (SMILES),EC50 (Vγ9/Vδ2 T cells [1]) [nM],EC50 (Vγ9/Vδ2 T cells [2]; [3]) [nM],also measured
"COC(=O)[C@H](C)NP(=O)(N[C@@H](C)C(=O)OC)C(F)(F)C/C=C(\C)CO [9a, Dimethyl 2,2′-((((E)-1,1-difluoro-5-hydroxy-4-methylpent-3-en-1-yl)phosphoryl)bis(azanediyl))(2S,2′S)-dipropionate]",191,,
"C/C(=C\CC(F)(F)P(=O)(N[C@@H](C)C(=O)OC(C)(C)C)N[C@@H](C)C(=O)OC(C)(C)C)CO [9c, Di-tert-butyl 2,2′-((((E)-1,1-difluoro-5-hydroxy-4-methylpent-3-en-1-yl)phosphoryl)bis(azanediyl))(2S,2′S)-dipropionate]",1500,,
"C/C(=C\CC(F)(F)P(=O)(N[C@@H](C)C(=O)OCc1ccccc1)N[C@@H](C)C(=O)OCc1ccccc1)CO [9d, Dibenzyl 2,2′-((((E)-1,1-difluoro-5-hydroxy-4-methylpent-3-en-1-yl)phosphoryl)bis(azanediyl))(2S,2′S)-dipropionate]",,,sensitizing effect for killing of T24 cells by Vγ9/Vδ2 T cells (T24 cells): much more potent; Activation of Vγ9/Vδ2 T cells at the highest concentration studied (Vγ9/Vδ2 T cells [1]): less than that achieved with 10 μM
"C/C(=C\CCP(=O)(N[C@@H](C)C(=O)OC(C)C)N[C@@H](C)C(=O)OC(C)C)CO [14b, Diisopropyl 2,2′-((((E)-5-hydroxy-4-methylpent-3-en-1-yl)phosphoryl)bis(azanediyl))(2S,2′S)-dipropionate]",87,,
"C/C(=C\CCP(=O)(N[C@@H](C)C(=O)OC(C)(C)C)N[C@@H](C)C(=O)OC(C)(C)C)CO [14c, Di-tert-butyl 2,2′-((((E)-5-hydroxy-4-methylpent-3-en-1-yl)phosphoryl)bis(azanediyl))(2S,2′S)-dipropionate]",6100,,
"C/C(=C\CCP(=O)(N[C@@H](C)C(=O)OCc1ccccc1)N[C@@H](C)C(=O)OCc1ccccc1)CO [14d, Dibenzyl 2,2′-((((E)-5-hydroxy-4-methylpent-3-en-1-yl)phosphoryl)bis(azanediyl))(2S,2′S)-dipropionate]",27,,sensitizing effect for killing of T24 cells by Vγ9/Vδ2 T cells (T24 cells): much more potent; Activation of Vγ9/Vδ2 T cells at the highest concentration studied (Vγ9/Vδ2 T cells [1]): less than that achieved with 10 μM
"C/C(=C\COP(=O)(O)O)CO [HMBP, (E)-4-Hydroxy-3-methylbut-2-enyl monophosphate]",,,EC50 (Vγ9/Vδ2 T cells [2]): 4000 nM
"C/C(=C\COP(=O)(O)OP(=O)(O)O)CO [HMBPP, (E)-4-hydroxy-3-methyl-but-2-enyl pyrophosphate]",,0.06 to 0.5,
"C=C(C)CCOP(=O)(O)OP(=O)(O)O [IPP, isopentenyl pyrophosphate]",,1000 to 10000,
"O=P(O)(O)C(O)(Cn1ccnc1)P(=O)(O)O [Zoledronate, zoledronate]",,3 to 3000,
O=P(O)(O)C(O)(Cc1cccnc1)P(=O)(O)O [risedronate],,80 to 5000,
